The record followed here is patent US11377442B2, “Small molecule agonists and antagonists of NR2F6 activity” (ZANDER THERAPEUTICS, INC., priority 2016, dated 2022).

Holding throughout (format): cell-based
One test has as its target T1, NR2F6 (Homo sapiens, UniProt P10588).
T1 construct: expressed in transfected cells; also transient transfection
T1 sequence (P10588 1-404): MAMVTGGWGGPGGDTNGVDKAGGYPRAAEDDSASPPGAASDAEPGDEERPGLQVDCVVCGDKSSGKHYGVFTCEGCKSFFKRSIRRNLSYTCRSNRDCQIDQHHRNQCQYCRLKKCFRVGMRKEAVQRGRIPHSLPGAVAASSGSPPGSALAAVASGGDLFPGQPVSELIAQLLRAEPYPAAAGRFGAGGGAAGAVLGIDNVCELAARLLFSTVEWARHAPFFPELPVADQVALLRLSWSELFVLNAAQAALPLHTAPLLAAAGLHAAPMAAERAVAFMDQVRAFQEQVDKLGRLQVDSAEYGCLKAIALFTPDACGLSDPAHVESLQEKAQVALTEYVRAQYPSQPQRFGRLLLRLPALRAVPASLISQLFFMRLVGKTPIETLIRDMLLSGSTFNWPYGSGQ
The test can be described thus: NR2F6 agonist screening, Firefly signal cmpd/DMSO.

Test [1] deals with T2, ERα (Homo sapiens, UniProt P03372).
T2 construct: expressed in transfected cells
T2 sequence (P03372 1-595): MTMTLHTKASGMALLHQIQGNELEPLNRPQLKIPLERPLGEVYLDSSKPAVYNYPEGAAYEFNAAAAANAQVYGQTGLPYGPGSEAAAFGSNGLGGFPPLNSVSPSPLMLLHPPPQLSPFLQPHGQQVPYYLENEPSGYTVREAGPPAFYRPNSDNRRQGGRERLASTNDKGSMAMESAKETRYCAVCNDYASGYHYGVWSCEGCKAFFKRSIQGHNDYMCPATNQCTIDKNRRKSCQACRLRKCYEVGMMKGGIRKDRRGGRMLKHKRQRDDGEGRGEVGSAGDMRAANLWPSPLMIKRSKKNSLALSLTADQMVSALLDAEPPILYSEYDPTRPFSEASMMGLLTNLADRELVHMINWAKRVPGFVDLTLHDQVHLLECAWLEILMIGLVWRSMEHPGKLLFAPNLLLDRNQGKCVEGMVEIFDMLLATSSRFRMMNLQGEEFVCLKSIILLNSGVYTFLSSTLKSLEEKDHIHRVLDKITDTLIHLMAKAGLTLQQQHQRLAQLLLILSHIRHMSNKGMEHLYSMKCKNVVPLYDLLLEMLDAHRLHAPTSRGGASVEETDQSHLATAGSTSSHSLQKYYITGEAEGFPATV
In words: Counterscreening, Firefly signal with ERα transient transfection (Firefly_ERa). As to conditions: 10 uM. The method, then: The methodology for screening candidate compounds as NR2F6 agonists was as follows: For primary screening, hit criteria was ACT %>DMSO control+5*SD (DSO control) at 10 μM, or any compound with S/B>2. For rescreening, hit criteria was ACT %>DMSO control+3*SD (DSO control) in each replicate at 10 μM. For counterscreening, hit criteria was mean ACT<DMSO control+3*SD (DMSO control) with ERα transient transfection in duplicate at 10 μM.
A general note: A counterscreen serves to expose hits that act by an unwanted route or on another target.

In another test the test system is Renilla. In words: Renilla signal in NR2F6 agonist screening, cmpd/DMSO. As to conditions: for fold induction at 2 µM / fold induction at 10 µM / fold induction at 40 µM: Renilla, read-out: Renilla F4, cmpd/DMSO (mean).
The next test deals with Renilla_ERa. In words: Renilla signal in ERα counterscreen (Renilla_ERa). The conditions noted are these: for fold induction at 2 µM / fold induction at 10 µM / fold induction at 40 µM: read-out: Renilla ERalpha transient, cmpd/DMSO (mean).
Test [2] addresses T2, ERα. In words: Counterscreening, Firefly signal with ERα transient transfection (Firefly_ERa).

SMILES strings stand for the structures. Like-named read-outs stand apart in the source and are kept apart here.

Turning to `COc1ccc(-c2cc3n(n2)C(N)=C(C#N)C(c2c[nH]c4ccccc24)(C(F)(F)F)N3)cc1OC` (stereo not drawn) [Compound Z44], the “Firefly F4, cmpd/DMSO (mean)” value on NR2F6 (2 uM, clone F4) was found to be 0.8; on NR2F6 (10 uM, clone F4) it was 0.8; on NR2F6 (40 uM, clone F4), 0.4. In addition, the “Firefly ERalpha transient, cmpd/DMSO (mean)” value is 1.2 on ERα [1], 1.2 on ERα [2] (2 uM) and 1.0 at ERα [2] (40 uM). In addition, the fold induction at 2 µM with Renilla (2 uM, clone F4) was determined as 1.7; in the test with Renilla_ERa (2 uM), 1.1. The fold induction at 10 µM in the test with Renilla (10 uM, clone F4) came out at 1.5; with Renilla_ERa (10 uM), 0.9. Besides, the fold induction at 40 µM in the test with Renilla (40 uM, clone F4) came to 0.3; in the test on Renilla_ERa (40 uM) it was 0.5.
For `N#Cc1c(C(F)(F)F)nc2ccc(Oc3ccccc3)cc2c1N1CCNCC1` [Compound Z51], the “Firefly F4, cmpd/DMSO (mean)” value was 0.6 at NR2F6 (2 uM, clone F4); 0.6 on NR2F6 (10 uM, clone F4); 0.7 at NR2F6 (40 uM, clone F4). Moreover, the results for the “Firefly ERalpha transient, cmpd/DMSO (mean)” value at ERα [1], on ERα [2] (2 uM) and on ERα [2] (40 uM) were 0.8, 1.3 and 0.4, respectively. For the same compound, the fold induction at 2 µM in the test on Renilla (2 uM, clone F4) was determined as 0.8; with Renilla_ERa (2 uM), 1.1. Moreover, the fold induction at 10 µM in the test with Renilla (10 uM, clone F4) is 0.7; in the test on Renilla_ERa (10 uM), 0.9. Further, the fold induction at 40 µM amounted to 0.3 with Renilla (40 uM, clone F4) and 0.3 with Renilla_ERa (40 uM).
As to `CCOC(=O)c1cnc2c(C)cc(C)cc2c1NCCCN` [Compound Z58], the “Firefly F4, cmpd/DMSO (mean)” value on NR2F6 (Table 15, 2 uM) worked out at 0.9; on NR2F6 (Table 15, 10 uM), 4.5; on NR2F6 (Table 15, 40 uM), 0.8. Moreover, the “Firefly ERalpha transient, cmpd/DMSO (mean)” value on ERα [1] (Table 15) is reported as 6.5; on ERα [2] (Table 15, 2 uM), 1.5; at ERα [2] (Table 15, 40 uM) it was 0.8. For the same compound, the fold induction at 2 µM in the test on Renilla (Table 15, 2 uM) is 1.3; in the test with Renilla_ERa (Table 15, 2 uM) it was 1.2. Further, the fold induction at 10 µM is 1.2 in the test with Renilla (Table 15, 10 uM) and 1.1 in the test with Renilla_ERa (Table 15, 10 uM). The fold induction at 40 µM in the test with Renilla (Table 15, 40 uM) turned out to be 0.8; in the test on Renilla_ERa (Table 15, 40 uM), 0.7.
Take `CCOC(=O)c1cnc2c(C)cc(C)cc2c1NCCCN1CCCC1` [Compound Z61]: the “Firefly F4, cmpd/DMSO (mean)” value on NR2F6 (Table 15, 2 uM) amounted to 1.7; at NR2F6 (Table 15, 10 uM), 2.5; at NR2F6 (Table 15, 40 uM), 0.8. Besides, the “Firefly ERalpha transient, cmpd/DMSO (mean)” value at ERα [1] (Table 15) came out at 9.1; on ERα [2] (Table 15, 2 uM), 3.0; on ERα [2] (Table 15, 40 uM), 0.7. In addition, the fold induction at 2 µM with Renilla (Table 15, 2 uM) is 1.3; in the test with Renilla_ERa (Table 15, 2 uM), 1.4. In addition, the fold induction at 10 µM in the test on Renilla (Table 15, 10 uM) was found to be 0.5; in the test with Renilla_ERa (Table 15, 10 uM), 0.8. Further, the fold induction at 40 µM in the test on Renilla (Table 15, 40 uM) worked out at 0.6; with Renilla_ERa (Table 15, 40 uM), 0.7.
For the compound `CCOC(=O)Cc1sc(Nc2nc(C)cc(C)n2)nc1-c1ccccc1` [Compound 28], the “Firefly F4, cmpd/DMSO (mean)” value was 1.2 on NR2F6 (2 uM, clone F4); 0.9 on NR2F6 (10 uM, clone F4); 0.6 at NR2F6 (40 uM, clone F4). For the same compound, the entries for the “Firefly ERalpha transient, cmpd/DMSO (mean)” value at ERα [1], at ERα [2] (2 uM) and at ERα [2] (40 uM) were 0.5, 1.0 and 0.6, respectively. Also, the fold induction at 2 µM in the test on Renilla (2 uM, clone F4) worked out at 1.1; in the test on Renilla_ERa (2 uM), 1.2. The fold induction at 10 µM with Renilla (10 uM, clone F4) is 0.8; with Renilla_ERa (10 uM), 0.8. Besides, the fold induction at 40 µM in the test on Renilla (40 uM, clone F4) is 0.6; in the test with Renilla_ERa (40 uM) it was 0.7.
As for `COC(=O)CNc1c(C#N)c(C(F)(F)F)nc2ccc(OC)cc12` [Compound Z46], the “Firefly F4, cmpd/DMSO (mean)” value on NR2F6 (2 uM, clone F4) amounted to 0.6; at NR2F6 (10 uM, clone F4), 0.8; on NR2F6 (40 uM, clone F4), 0.6. The results for the “Firefly ERalpha transient, cmpd/DMSO (mean)” value at ERα [1], at ERα [2] (2 uM) and on ERα [2] (40 uM) were 0.8, 0.9 and 0.6, respectively. Also, the fold induction at 2 µM in the test on Renilla (2 uM, clone F4) was determined as 0.9; in the test on Renilla_ERa (2 uM), 0.9. Further, the fold induction at 10 µM in the test on Renilla (10 uM, clone F4) was determined as 0.8; with Renilla_ERa (10 uM), 1. Moreover, the fold induction at 40 µM was found to be 0.6 with Renilla (40 uM, clone F4) and 1 in the test with Renilla_ERa (40 uM).
For `COc1cccc(-c2noc(Cn3ncc4ccccc4c3=O)n2)c1` [Compound Z6], the “Firefly F4, cmpd/DMSO (mean)” value came out at 1.4 on NR2F6 (Table 15, 2 uM); 1.4 on NR2F6 (Table 15, 10 uM); 1.1 at NR2F6 (Table 15, 40 uM). Moreover, the “Firefly ERalpha transient, cmpd/DMSO (mean)” value came out at 2.2 at ERα [1] (Table 15); 2.0 on ERα [2] (Table 15, 2 uM); 1.1 on ERα [2] (Table 15, 40 uM). For the same compound, the “Renilla F4, cmpd/DMSO (mean)” value in the test on Renilla (Table 15, 2 uM) is 1.1; in the test on Renilla (Table 15, 10 uM), 1.1; with Renilla (Table 15, 40 uM), 0.9. The “Renilla ERalpha transient, cmpd/DMSO (mean)” value with Renilla_ERa (Table 15, 2 uM) was 1.1; in the test with Renilla_ERa (Table 15, 10 uM), 1.1; with Renilla_ERa (Table 15, 40 uM) it was 0.9.
For the compound `CCOC(=O)c1cnc2c(Cl)cc(Cl)cc2c1NCCCN1CCCCC1` [Compound Z37], the “Firefly F4, cmpd/DMSO (mean)” value worked out at 1.0 on NR2F6 (2 uM, clone F4); 1.4 on NR2F6 (10 uM, clone F4); 0.7 on NR2F6 (40 uM, clone F4). Further, the “Firefly ERalpha transient, cmpd/DMSO (mean)” value at ERα [1] stood at 1.5; at ERα [2] (2 uM), 1.1; on ERα [2] (40 uM) it was 1.2. Moreover, the fold induction at 2 µM was 1 with Renilla (2 uM, clone F4) and 1 in the test with Renilla_ERa (2 uM). For the same compound, the fold induction at 10 µM is 0.9 in the test on Renilla (10 uM, clone F4) and 1.7 in the test on Renilla_ERa (10 uM). Moreover, the fold induction at 40 µM came out at 0.5 with Renilla (40 uM, clone F4) and 0.7 in the test with Renilla_ERa (40 uM).
`COc1ccc(-c2cc3n(n2)C(N)=C(C#N)C(c2cccn2C)(C(F)(F)F)N3)cc1OC` (stereo not drawn) [Compound Z50]: the “Firefly F4, cmpd/DMSO (mean)” value at NR2F6 (2 uM, clone F4) was 0.8; on NR2F6 (10 uM, clone F4), 0.9; at NR2F6 (40 uM, clone F4) it was 0.6. Moreover, the “Firefly ERalpha transient, cmpd/DMSO (mean)” value at ERα [1] was determined as 0.7; at ERα [2] (2 uM), 1.3; on ERα [2] (40 uM) it was 0.7. Also, the fold induction at 2 µM in the test with Renilla (2 uM, clone F4) is 1.6; in the test on Renilla_ERa (2 uM) it was 1. Besides, the fold induction at 10 µM was 2 in the test on Renilla (10 uM, clone F4) and 0.8 in the test on Renilla_ERa (10 uM). Besides, the fold induction at 40 µM amounted to 0.8 in the test on Renilla (40 uM, clone F4) and 0.6 in the test with Renilla_ERa (40 uM).
Turning to `N#Cc1c(C(F)(F)F)nc2ccc(Oc3ccccc3)cc2c1NCCc1ccc(Cl)cc1` [Compound Z52], the “Firefly F4, cmpd/DMSO (mean)” value on NR2F6 (2 uM, clone F4) was 0.6; on NR2F6 (10 uM, clone F4), 0.7; on NR2F6 (40 uM, clone F4) it was 0.7. Further, the “Firefly ERalpha transient, cmpd/DMSO (mean)” value at ERα [1] amounted to 0.4; at ERα [2] (2 uM), 0.7; on ERα [2] (40 uM), 0.7. The fold induction at 2 µM with Renilla (2 uM, clone F4) worked out at 0.8; in the test with Renilla_ERa (2 uM) it was 1.1. The fold induction at 10 µM amounted to 0.5 with Renilla (10 uM, clone F4) and 0.8 in the test on Renilla_ERa (10 uM). In addition, the fold induction at 40 µM was determined as 0.6 with Renilla (40 uM, clone F4) and 0.7 in the test with Renilla_ERa (40 uM).
